Test [1] has as its target T1, human blood platelet PDE5 (Homo sapiens, UniProt O76074).
T1 construct: obtained by suitably treating various tissues and separating the enzyme with FPLC; from tissue; host or cells: human blood platelets
The test can be described thus: PDE5 enzyme inhibition activity test (scintillation proximity). In kind it is biochemical. A digest of the protocol: (§1)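 Enzymes were used immediately after isolation: PDE6 from bovine retina, PDE5 from human platelets. Each was incubated 30 min at 30 °C with varying inhibitor concentrations and a small amount of substrate in Tris/HCl pH 7.5 buffer with MgCl2 and EGTA. Reactions were quenched with zinc-sulphate yttrium silicate SPA beads and product counted by scintillation.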
In general terms: SPA uses beads or plates that emit light when radiolabelled molecules are held near them.

The target of a further test is T2, PDE6 in bovine retina (Bos taurus, UniProt P11541+P23439).
T2 construct: obtained by suitably treating various tissues and separating the enzyme with FPLC; from tissue; host or cells: bovine retina
T2 sequence (P11541 2-856 limits assumed): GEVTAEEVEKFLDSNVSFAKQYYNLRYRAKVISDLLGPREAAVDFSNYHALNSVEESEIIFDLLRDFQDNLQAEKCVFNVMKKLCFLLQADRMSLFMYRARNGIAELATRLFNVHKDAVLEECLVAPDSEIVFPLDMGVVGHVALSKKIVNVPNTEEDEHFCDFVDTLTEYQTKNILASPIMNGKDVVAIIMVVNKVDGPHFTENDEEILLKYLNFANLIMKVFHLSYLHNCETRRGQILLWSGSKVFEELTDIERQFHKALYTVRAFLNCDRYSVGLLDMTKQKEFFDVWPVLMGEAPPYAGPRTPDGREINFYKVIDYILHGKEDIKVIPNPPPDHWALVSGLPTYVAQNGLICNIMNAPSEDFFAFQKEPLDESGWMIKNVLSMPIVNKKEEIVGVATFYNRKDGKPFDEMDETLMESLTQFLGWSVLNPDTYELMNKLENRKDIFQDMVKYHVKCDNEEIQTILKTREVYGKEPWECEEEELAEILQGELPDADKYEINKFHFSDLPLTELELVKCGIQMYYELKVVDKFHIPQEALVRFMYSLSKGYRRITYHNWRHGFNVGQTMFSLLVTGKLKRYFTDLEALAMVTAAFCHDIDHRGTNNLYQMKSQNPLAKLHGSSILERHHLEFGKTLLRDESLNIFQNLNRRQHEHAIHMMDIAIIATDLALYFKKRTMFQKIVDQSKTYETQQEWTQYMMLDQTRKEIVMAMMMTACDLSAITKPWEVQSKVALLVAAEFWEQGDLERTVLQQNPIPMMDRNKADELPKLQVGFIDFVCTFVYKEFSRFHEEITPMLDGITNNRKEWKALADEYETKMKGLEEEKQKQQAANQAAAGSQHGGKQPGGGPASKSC
T2 sequence (P23439 2-850 limits assumed): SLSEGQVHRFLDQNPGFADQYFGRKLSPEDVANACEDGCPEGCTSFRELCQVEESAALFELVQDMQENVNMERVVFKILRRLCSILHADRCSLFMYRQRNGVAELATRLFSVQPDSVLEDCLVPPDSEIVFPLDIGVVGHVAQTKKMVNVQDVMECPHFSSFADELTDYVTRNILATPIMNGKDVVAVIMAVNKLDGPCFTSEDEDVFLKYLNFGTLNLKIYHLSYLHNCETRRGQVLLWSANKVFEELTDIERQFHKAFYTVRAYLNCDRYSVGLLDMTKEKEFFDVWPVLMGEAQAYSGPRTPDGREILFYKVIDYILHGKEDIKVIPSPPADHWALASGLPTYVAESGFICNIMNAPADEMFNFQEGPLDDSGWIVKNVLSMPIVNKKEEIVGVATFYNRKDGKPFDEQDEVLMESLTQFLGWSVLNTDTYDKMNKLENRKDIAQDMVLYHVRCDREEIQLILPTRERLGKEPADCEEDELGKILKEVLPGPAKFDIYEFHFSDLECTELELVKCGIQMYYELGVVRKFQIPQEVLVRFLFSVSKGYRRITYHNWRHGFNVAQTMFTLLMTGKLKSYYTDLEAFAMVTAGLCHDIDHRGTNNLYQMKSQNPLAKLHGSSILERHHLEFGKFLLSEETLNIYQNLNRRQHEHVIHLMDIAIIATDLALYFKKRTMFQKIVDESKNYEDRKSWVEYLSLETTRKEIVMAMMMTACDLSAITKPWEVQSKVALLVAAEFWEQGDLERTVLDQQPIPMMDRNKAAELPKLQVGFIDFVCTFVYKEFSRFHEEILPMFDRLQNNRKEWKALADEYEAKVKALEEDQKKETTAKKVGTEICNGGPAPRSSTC
The test is described as follows: PDE6 enzyme inhibition activity test (scintillation proximity). In kind it is biochemical. Conditions: for IC50: PDE6 separated from bovine retina, read-out: PDE6 IC50; for PDE6 IC50/PDE5 IC50: selectivity, ratio of IC50 PDE6/IC50 PDE5. The procedure, abridged: as §1

9 compounds from US8871777B2, “Phenylpyrimidone compounds, the pharmaceutical compositions, preparation methods and uses thereof” (Topharman Shanghai Co., Ltd., priority 2008, dated 2014) can be followed below.

What is called IC50 is the midpoint of a concentration-inhibition curve.

`CCCOc1ccc(C(=O)NC(C)C(=O)N2CCN(C)CC2)cc1-c1nc(CC)c(CC)c(=O)[nH]1` (stereo not drawn) [Example 154, 3-(4,5-diethyl-1,6-dihydro-6-oxopyrimidin-2-y1)-N-(1-(4-methylpiperazin-l-yl)-1-oxopropan-2-y1)-4-n-propoxybenzamide]: the IC50 came to 400 pM in test [1] (PDE5 table), 400 pM in test [1] (as repeated in the PDE6 table) and 37900 pM at PDE6 in bovine retina. For the same compound, at PDE6 in bovine retina, the “PDE6 IC50/PDE5 IC50” value was found to be 94.6.

Consider `CCCOc1ccc(C(=O)N2CCN(CCOCCO)CC2)cc1-c1nc(CC)c(CC)c(=O)[nH]1` [Example 163], for which the values for the IC50 (in test [1] (PDE5 table); in test [1] (as repeated in the PDE6 table); at PDE6 in bovine retina) were 7920 pM, 7920 pM and 48600 pM, respectively. Moreover, the “PDE6 IC50/PDE5 IC50” value on PDE6 in bovine retina was 6.1.

For the compound `CCCOc1ccc(C(=O)N2CCN(CCO)CC2)cc1-c1nc(CC)c(CC)c(=O)[nH]1` [Example 164], the IC50 was found to be 460 pM in test [1] (PDE5 table), 460 pM in test [1] (as repeated in the PDE6 table) and 31800 pM on PDE6 in bovine retina. Also, on PDE6 in bovine retina, the “PDE6 IC50/PDE5 IC50” value was found to be 68.7.

On to `CCCOc1ccc(C(=O)NC(C)CO)cc1-c1nc(CC)c(CC)c(=O)[nH]1` (stereo not drawn) [Example 166, 3-(4,5-diethyl-1,6-dihydro-6-oxopyrimidin-2-yl)-N-(1-hydroxyprop-2-yl)-4-n-propoxybenzamide], for which the values for the IC50 (in test [1] (PDE5 table); in test [1] (as repeated in the PDE6 table); on PDE6 in bovine retina) were 330 pM, 330 pM and 5150 pM, respectively. In addition, the “PDE6 IC50/PDE5 IC50” value on PDE6 in bovine retina came to 15.6.

`CCCOc1ccc(C(=O)NCCCS(=O)(=O)O)cc1-c1nc(CC)c(CC)c(=O)[nH]1` [Example 169, 3-(3-(4,5-diethyl-1,6-dihydro-6-oxopyrimidin-2-yl)-4-n-propoxybenzamido)propyl-1-sulfonic acid]: the IC50 came out at 110 pM in test [1] (PDE5 table), 110 pM in test [1] (as repeated in the PDE6 table) and 10400 pM at PDE6 in bovine retina. The “PDE6 IC50/PDE5 IC50” value at PDE6 in bovine retina worked out at 91.3.

As for `CCCOc1ccc(C(=O)NC2CCC(C(=O)OC)NC2)cc1-c1nc(CC)c(CC)c(=O)[nH]1` (stereo not drawn) [Example 174, methyl 5-(3-(4,5-diethyl-1,6-dihydro-6-oxopyrimidin-2-yl)-4-n-propoxybenzamido)piperidine-2-formate], the IC50 was 450 pM in test [1] (PDE5 table), 450 pM in test [1] (as repeated in the PDE6 table) and 13700 pM at PDE6 in bovine retina. The “PDE6 IC50/PDE5 IC50” value on PDE6 in bovine retina stood at 30.3.

For `CCCOc1ccc(NC(=O)c2ccccc2)cc1-c1nc(CC)c(CC)c(=O)[nH]1` [Example 186, N-(3-(4,5-diethyl-1,6-dihydro-6-oxopyrimidin-2-yl)-4-n-propoxyphenyl)benzamide], the IC50 amounted to 340 pM in test [1] (PDE5 table), 340 pM in test [1] (as repeated in the PDE6 table) and 7400 pM at PDE6 in bovine retina. Also, the “PDE6 IC50/PDE5 IC50” value on PDE6 in bovine retina came to 21.4.

Regarding `CCCOc1ccc(NC(=O)NCCN(CC)CC)cc1-c1nc(CC)c(CC)c(=O)[nH]1.O=C(O)/C=C\C(=O)O` [Example 204, 1-(2-(Diethylamino)ethyl)-3-(3-(4,5-diethyl-1,6-dihydro-6-oxopyrimidin-2-yl)-4-n-propoxyphenyl)urea maleate], the IC50 in test [1] (PDE5 table) came to 880 pM; in test [1] (as repeated in the PDE6 table) it was 880 pM; on PDE6 in bovine retina it was 54500 pM. Moreover, the “PDE6 IC50/PDE5 IC50” value at PDE6 in bovine retina was determined as 61.9.

In the case of `CCCOc1ccc(C(=O)N2CCN(C)CC2)cc1-c1nc(CC)c(CC)c(=O)[nH]1` [Example 205], the IC50 in test [1] (PDE5 table) was found to be 1930 pM; in test [1] (as repeated in the PDE6 table), 1930 pM; at PDE6 in bovine retina, 17200 pM. Moreover, the “PDE6 IC50/PDE5 IC50” value on PDE6 in bovine retina is 8.9.
